Measurements reported in patent US6586389B1, “Cubilin protein, DNA sequences encoding cubilin and uses thereof” (Administrators of the Tulane Educational Fund, priority 1998, dated 2003).
Blank lines part the entries; values can stand above or below the substance they belong to.

Assays:
[1] = system: Rabbit megalin; assay: Megalin-cubilin interaction analysis by surface plasmon resonance; assay type: binding
Protocol: Rabbit megalin was immobilized to a sensor chip and the on rates and off rates for the binding of cubilin was recorded by flow of 20 nM purified cubilin along the chip surface. For control, cubilin was subjected to a blank chip. […] The binding curves in the presence of 10 mM EDTA or after prebinding of RAP to megalin are also shown. […] By fitting the binding data to a one-binding-site model a Kd of 7 nM was measured.
Surface plasmon resonance measurements were performed on a BIAcore 2000 instrument (Pharmacia, Sweden). BIAcore sensor chips (type CM5, Pharmacia) were activated with 1:1 mixture of 0.2 M N-ethyl-N′-(3-dimethylaminopropyl) carbodiimide and 0.05 M N-hydroxysuccimine in water. Rabbit megalin was immobilized as described (Moestrup et al., 1996) at a concentration of 40 μg/ml in 10 mM sodium acetate, pH 4.5 and the remaining binding sites were blocked with 1 M ethanolamine, pH 8.5. The flow buffer was 10 mM Hepes, 150 mM NaCl and […], 1 mM EDTA, pH 7.4. The binding data were analyzed using the BIAevaluation program.
Bound radiolabel was released from the column by EDTA. Surface plasmon analysis (FIG. 10A) confirmed this binding. […] Megalin-bound cubilin was still capable of binding IF-B12 as shown by subjecting the megalin-chip to flow with IF-B12 after the binding of cubilin (FIG. 10B). Thus, the response after adding IF-B12 represents the formation of a megalin-cubilin-IF-B12 complex.

[2] = target: rabbit megalin (rabbit); assay: SPR (BIAcore 2000), rabbit megalin immobilized, 20 nM purified cubilin in flow, blank chip subtracted, one-binding-site fit
[3] = target: T1, Cubilin (Rattus norvegicus, UniProt O70244); assay: Ligands for cubilin: competition with known ligands; assay type: binding; settings: RAP vs IF-B12; haptoglobin vs light chains; gentamicin vs light chain
T1 sequence (O70244 33-3623): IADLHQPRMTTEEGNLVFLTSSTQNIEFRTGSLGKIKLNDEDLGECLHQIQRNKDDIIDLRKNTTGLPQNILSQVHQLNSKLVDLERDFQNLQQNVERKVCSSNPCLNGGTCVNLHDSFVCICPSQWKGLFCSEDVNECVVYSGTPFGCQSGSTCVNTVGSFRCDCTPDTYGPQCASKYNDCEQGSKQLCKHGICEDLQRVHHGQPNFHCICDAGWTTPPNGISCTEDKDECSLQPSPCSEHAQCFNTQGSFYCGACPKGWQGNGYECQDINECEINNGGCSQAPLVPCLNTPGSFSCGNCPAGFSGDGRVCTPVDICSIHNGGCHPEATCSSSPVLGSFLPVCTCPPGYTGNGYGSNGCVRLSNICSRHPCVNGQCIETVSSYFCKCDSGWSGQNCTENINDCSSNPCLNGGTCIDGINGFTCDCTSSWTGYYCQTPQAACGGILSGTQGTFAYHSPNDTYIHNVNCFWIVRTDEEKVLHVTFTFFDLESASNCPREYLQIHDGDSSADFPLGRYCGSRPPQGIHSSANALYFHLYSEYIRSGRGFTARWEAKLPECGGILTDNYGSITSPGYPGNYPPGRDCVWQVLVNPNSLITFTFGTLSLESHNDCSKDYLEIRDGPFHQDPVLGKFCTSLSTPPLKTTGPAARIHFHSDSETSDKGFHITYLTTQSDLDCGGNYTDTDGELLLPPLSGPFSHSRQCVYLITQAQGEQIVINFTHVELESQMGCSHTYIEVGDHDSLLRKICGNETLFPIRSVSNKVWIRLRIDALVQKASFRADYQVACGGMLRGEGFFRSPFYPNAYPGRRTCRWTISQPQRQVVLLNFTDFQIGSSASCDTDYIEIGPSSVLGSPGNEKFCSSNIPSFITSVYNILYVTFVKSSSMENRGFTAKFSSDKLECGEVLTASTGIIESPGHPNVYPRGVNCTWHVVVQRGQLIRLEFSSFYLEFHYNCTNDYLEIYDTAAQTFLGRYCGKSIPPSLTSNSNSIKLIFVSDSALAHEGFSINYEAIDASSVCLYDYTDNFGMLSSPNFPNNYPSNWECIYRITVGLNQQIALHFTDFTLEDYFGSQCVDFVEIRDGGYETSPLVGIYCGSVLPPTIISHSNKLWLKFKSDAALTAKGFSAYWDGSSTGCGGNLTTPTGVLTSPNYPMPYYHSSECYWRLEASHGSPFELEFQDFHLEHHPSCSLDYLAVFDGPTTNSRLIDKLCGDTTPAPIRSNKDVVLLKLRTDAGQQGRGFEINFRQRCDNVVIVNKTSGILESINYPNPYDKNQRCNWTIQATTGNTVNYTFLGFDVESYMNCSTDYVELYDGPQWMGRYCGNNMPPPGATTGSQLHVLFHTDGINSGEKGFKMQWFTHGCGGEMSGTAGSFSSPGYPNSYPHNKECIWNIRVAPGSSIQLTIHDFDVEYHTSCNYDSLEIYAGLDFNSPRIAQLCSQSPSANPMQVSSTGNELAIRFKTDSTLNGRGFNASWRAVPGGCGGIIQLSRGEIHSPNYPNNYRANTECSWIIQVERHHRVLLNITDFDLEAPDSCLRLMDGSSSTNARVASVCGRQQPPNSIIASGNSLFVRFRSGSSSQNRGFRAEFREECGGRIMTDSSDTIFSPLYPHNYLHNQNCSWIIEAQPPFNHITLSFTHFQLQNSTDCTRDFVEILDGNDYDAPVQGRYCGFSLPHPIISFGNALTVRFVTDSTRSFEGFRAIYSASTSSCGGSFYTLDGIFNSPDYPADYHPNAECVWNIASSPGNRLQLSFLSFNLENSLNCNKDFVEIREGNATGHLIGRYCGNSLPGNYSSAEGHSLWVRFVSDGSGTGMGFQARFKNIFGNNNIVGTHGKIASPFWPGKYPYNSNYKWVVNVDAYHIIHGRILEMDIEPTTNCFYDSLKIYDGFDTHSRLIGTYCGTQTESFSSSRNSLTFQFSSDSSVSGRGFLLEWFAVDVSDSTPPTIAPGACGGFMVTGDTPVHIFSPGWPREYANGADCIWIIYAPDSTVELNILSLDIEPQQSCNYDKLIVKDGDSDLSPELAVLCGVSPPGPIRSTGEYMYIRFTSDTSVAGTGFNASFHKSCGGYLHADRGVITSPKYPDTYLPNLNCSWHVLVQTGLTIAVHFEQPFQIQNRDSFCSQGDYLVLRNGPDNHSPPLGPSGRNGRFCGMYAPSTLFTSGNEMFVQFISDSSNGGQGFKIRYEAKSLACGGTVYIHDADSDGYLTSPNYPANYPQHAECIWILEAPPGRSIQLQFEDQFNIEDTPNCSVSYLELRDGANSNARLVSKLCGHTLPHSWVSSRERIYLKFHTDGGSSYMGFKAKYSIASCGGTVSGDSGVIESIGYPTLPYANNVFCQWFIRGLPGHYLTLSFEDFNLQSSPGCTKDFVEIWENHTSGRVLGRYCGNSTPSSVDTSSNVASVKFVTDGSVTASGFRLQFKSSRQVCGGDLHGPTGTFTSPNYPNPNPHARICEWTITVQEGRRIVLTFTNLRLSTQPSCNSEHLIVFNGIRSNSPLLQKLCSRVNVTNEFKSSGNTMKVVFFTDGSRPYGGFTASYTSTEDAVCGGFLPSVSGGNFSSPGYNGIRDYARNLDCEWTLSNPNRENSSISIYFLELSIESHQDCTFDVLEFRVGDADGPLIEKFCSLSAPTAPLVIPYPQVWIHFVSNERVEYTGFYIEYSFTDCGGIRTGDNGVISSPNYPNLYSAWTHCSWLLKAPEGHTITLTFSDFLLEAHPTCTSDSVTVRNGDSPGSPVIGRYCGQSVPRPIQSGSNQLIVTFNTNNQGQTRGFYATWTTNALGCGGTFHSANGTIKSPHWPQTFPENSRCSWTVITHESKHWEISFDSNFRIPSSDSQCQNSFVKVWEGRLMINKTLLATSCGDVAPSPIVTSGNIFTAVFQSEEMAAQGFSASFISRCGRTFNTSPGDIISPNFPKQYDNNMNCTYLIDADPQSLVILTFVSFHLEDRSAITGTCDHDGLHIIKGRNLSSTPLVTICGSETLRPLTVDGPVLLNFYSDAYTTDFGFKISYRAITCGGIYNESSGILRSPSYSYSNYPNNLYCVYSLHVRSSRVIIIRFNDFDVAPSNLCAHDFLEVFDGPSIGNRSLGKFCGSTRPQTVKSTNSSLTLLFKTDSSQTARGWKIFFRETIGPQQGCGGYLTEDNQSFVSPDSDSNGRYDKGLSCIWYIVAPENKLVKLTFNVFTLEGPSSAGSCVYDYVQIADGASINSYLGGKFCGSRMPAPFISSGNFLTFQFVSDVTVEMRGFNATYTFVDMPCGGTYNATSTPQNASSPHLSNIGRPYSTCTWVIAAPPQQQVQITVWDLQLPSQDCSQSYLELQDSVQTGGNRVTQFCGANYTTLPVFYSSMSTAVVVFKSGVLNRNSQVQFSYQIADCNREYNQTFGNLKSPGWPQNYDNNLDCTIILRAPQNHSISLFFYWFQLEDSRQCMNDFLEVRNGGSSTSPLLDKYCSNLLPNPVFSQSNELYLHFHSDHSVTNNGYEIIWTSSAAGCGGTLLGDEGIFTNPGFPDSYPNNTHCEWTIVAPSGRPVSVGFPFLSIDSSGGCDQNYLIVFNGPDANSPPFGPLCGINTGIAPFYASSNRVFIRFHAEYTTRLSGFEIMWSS

[4] = system: renal brush border membrane; settings: cited from earlier work
[5] = target: megalin in native membranes (rat renal brush-border membrane vesicles; rat yolk sac cells) (rat) (UniProt P98158); assay: cell-based or functional assay
[6] = target: rabbit megalin (rabbit); assay: SPR, RAP prebound to immobilized rabbit megalin; competitor cubilin in flow
[7] = system: rat renal brush border membrane vesicles; assay: Gentamicin competition with fluorescein-light chain binding to brush border membrane vesicles (flow cytometry); settings: control 39.6±4.2, n=4
Protocol: Given the abundance of megalin on the renal brush border membrane, if megalin is a light chain receptor this would predict that small polybasic drugs, such as gentamicin, which are known ligands for megalin, should compete for light chain binding to renal brush border membrane vesicles. To test this, rat renal brush border membrane vesicles were incubated in fluorescein-conjugated light chains with various concentrations of gentamicin. After washing, fluorescein-light chain binding to the membranes was analyzed by flow cytometry (FIG. 16). Estimate of half maximal binding concentration of gentamicin between 60 and 70 μM was placed in the middle of the curve. Gentamicin competes with fluorescent light chain binding to renal brush border membranes in a dose-dependent manner (control FITC-light chain binding 39.6±4.2 arbitrary fluorescence units, 10 μM gentamicin 45.1±3.1, 100 μM gentamicin 8.9±33.8*, 1000 μM gentamicin 6.3±1.9*, n=4, *p<0.05).

[8] = system: yolk sac epithelial cells (BN/MSV); assay: Endocytosis of FITC-light chain by yolk sac cells; assay type: cell-based, rat; settings: 30 min, FIG. 14A; antibody at 1:1,000 dilution
Protocol: The yolk sac epithelial cell line (BN/MSV) was derived from yolk sac teratocarcinoma induced by fetectomy and placental injection of mouse sarcoma virus (Sahali et al., 1988). When grown under conventional conditions in modified Eagle's medium, supplemented with 2.5 mM L-glutamine, 10% fetal calf serum, and an antibiotic cocktail (penicillin, streptomycin, and Fungizone), the cells form a domed monolayer and express abundant cubilin (Sahali et al., 1988).
Internalization experiments were conducted by exposing confluent yolk sac cells in 24-cell plates to […] FITC-conjugated light chain. These cells were selected for endocytosis experiments because cubilin expression is 100-fold greater than cultured proximal tubule cells (Sahali et al., 1988). […] This concentration is selected because it is 10-fold higher than the half-maximal inhibitory concentration of the antibody determined from the brush border binding inhibition experiments. […] Cells are then trypsininzed, fixed in 1% formaldehyde, and suspended in PBS, and FITC incorporated into each cell is read in a Becton-Dickinson flow cytometer as described previously. Endocytosis curves are generated by plotting fluorescence units corrected for background against time. […]

[9] = system: rat renal cortical intermicrovillar clefts; assay: Endosomal fusion reconstituted in vitro (energy transfer); assay type: biochemical; design: dose or concentration left out as unconfirmed; settings: membranes loaded with λ-light chains via homogenization buffer; n=8
Source text: The λ_light chains were loaded into rat renal cortical intermicrovillar cleft at […] by addition to the homogenization buffer. Fusion reconstituted in vitro in light chain-loaded membranes was inhibited compared with albumin-loaded control membranes. Values are mean±standard error for n=8, p<0.05 by unpaired t-test.
Fusion of these light chain loaded membranes was compared to control membranes loaded with the same concentration of albumin. All fluorescence measurements were corrected per mg of protein, and fusion reconstituted in vitro in cuvettes (Hammond et al., 1994). Data are expressed as mean +standard error of the mean throughout the application. Statistical analysis was performed by analysis of variance and Bonferroni or Scheffe's post hoc comparison.
To test whether myeloma light chains are functionally important in membrane trafficking and fusion events, intermicrovillar clefts were loaded with light chains by adding it to the homogenization buffer (Hammond et al., 1994). Fusion reconstituted in vitro in cuvettes was assayed by energy transfer, and results were normalized per milligram protein (Hammond et al., 1994; Jo et al., 1995).

[10] = target: T1, Cubilin; assay: Surface plasmon resonance analysis of light chain/cubilin interaction; assay type: binding; design: from tissue; host or cells: rat renal cortex (intermicrovillar clefts); settings: cubilin 100 nM preincubated with κ-light chains (10 or 490 μM) or λ-light chains (10 μM)
Protocol: A sample of cubilin (100 nM) was incubated with κ-light chains (10 or 490 μM), or […] prior to injecting the sample over the κ-light chain surface. The binding of cubilin to the immobilized surfaces was reduced in the presence of κ- or λ-light chains in a dose-response fashion. Data are representative of experiments with 4 light chains on 3 chips. […] LC, light chains: RU, response units.
Intermicrovillar clefts prepared from renal cortices were biotinylated on the cytosolic facade using NHS-biotin (Winearls, 1995). Cubilin and the associated proteins were purified by immunoaffinity chromatography MAb 75 was coupled to CNBr-activated Sepharose 4B (Pharmacia, Saint Quentin en Yvelines, France) as previously described (Sahali et al., 1988; 1993). Protease inhibitors were added at all steps.
κ- or λ-light chains were immobilized via free amine groups to the dextran matrix of CM5 sensor chips activated by a 1/1 mixture of NHS and EDC. Unreacted sites were blocked with 1M ethanolamine, pH 8.5, (Jonsson et al., 1991; Sanders et al., 1988). The immobilization was conducted at 25° C. using 10 mM HEPES, 2 mM CaCl2, 150 mM NaCl, 0.005% NP-40, pH 7.4 as the flow buffer. Then 10 mM acetate pH 4.8 was used for electrostatic pre-concentration of the protein. […]

Sequence of RAP (Receptor related protein) (ligand) (P30533 35-357): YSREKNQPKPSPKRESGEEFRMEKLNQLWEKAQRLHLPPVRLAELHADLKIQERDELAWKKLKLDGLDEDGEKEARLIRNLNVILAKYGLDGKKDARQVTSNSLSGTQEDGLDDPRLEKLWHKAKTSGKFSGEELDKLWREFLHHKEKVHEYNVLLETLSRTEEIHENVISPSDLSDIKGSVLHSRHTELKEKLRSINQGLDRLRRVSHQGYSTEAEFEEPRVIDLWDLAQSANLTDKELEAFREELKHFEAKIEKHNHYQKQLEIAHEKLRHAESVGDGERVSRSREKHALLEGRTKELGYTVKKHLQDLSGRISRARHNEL
Sequence of cubilin (purified; species of origin not stated where used) (receptor) (O70244 33-3623): as the sequence (O70244 33-3623) above

Substance: cubilin (purified; species of origin not stated where used) (receptor)
- Kd [2]: 7 nM

Substance: cytochrome c: low molecular weight protein competing with light chain
- Competition with light chain for brush border membrane binding [4]: competing

Substance: myoglobin
- Competition with light chain for brush border membrane binding [4]: competing

Substance: albumin: bovine serum albumin used as nonspecific protein control
- Effect on FITC-light chain endocytosis [8]: no effect
- Endosomal fusion [9]: 1584±314 arbitrary fluorescence units/mg protein
- Effect of free protein on binding of cubilin to immobilized light chains (competition) [10]: neither competed with light chains, nor bound to cubilin

Substance: lysozyme
- Competition with light chain for brush border membrane binding [4]: competing

Now from value to substance:

- Binding to megalin (control experiments) ([1]; megalin chip): no binding
Substance: Intrinsic factor vitamin B12: intrinsic factor-vitamin B12 complexes

- Reduction of binding of cubilin to megalin ([1]; RAP prebound to megalin): 75%
- Competition between ligands for binding to cubilin [3]: does not inhibit
Substance: RAP: Receptor related protein; binds megalin and cubilin

- Competition between ligands for binding to cubilin [3]: do not compete
Substance: haptoglobin: protein ligand for cubilin

- reduction of endocytosis of 125I-IF-B12 in cultured yolk sac cell [5]: 10 to 15%
- reduction of cubilin binding to megalin [6]: 75%
Substance: RAP (Receptor related protein) (ligand)

- FITC-light chain binding ([7]; 10 μM gentamicin): 45.1±3.1 arbitrary fluorescence units
- FITC-light chain binding ([7]; 100 μM gentamicin): 8.9±33.8 arbitrary fluorescence units
- FITC-light chain binding ([7]; 1000 μM gentamicin): 6.3±1.9 arbitrary fluorescence units
- Competition between ligands for binding to cubilin [3]: directly interferes
Substance: gentamicin

- Kd ([1]; binding data fitted to a one-binding-site model, 20 nM purified cubilin over immobilized rabbit megalin): 7 nM
Substance: cubilin: 460 kDa epithelial glycoprotein receptor for intrinsic factor-vitamin B12 complexes; rat sequence SEQ ID No. 2
